In patent US9168275B2 (priority 2000, dated 2015):

Experiments:
[1] = target: tetanus toxin (Clostridium tetani, UniProt P04958); conditions: cited from earlier work
[2] = tested on: clostridia; conditions: cited from earlier work
[3] = tested on: children with regressive onset autism; conditions: in vivo
[4] = in vivo, po; cited from earlier work
[5] = tested on: Bacteroides; conditions: cited from earlier work
[6] = tested on: person with chronic diarrhea and autism; format: in vivo, human
Protocol: Diarrhea began after three 10 day courses of broad spectrum antimicrobials prescribed over a six week period for “chronic otitis media.” There was no blood or pus in the stool nor associated constitutional symptoms. There was profound behavioral and developmental deterioration, along with emergence of severe autistic features.
A 12 week therapeutic trial of oral vancomycin (125 mg QID) was begun with expanded observations by a pediatric neuropsychologist pre- and post-treatment. At baseline, the child was not on a special diet nor was […] taking any vitamin supplements. Three days after initiation of the vancomycin therapy, a hyperactivity pattern emerged which lasted for four days. […] became affectionate and relatively calm. […] promptly achieved toilet training and increased vocabulary. Follow-up behavioral observations after eight weeks of therapy noted an increase in on-task performance, compliance with parental requests, awareness of environmental surroundings, and persistence when engaging in positive activities. […] The child's educational therapies remained unchanged for both six months before and during the vancomycin trial. […] Though still improved over baseline, […] eventually lost most of the initial gains.

Chain of tetanus toxin (P04958 whole entry, looked up): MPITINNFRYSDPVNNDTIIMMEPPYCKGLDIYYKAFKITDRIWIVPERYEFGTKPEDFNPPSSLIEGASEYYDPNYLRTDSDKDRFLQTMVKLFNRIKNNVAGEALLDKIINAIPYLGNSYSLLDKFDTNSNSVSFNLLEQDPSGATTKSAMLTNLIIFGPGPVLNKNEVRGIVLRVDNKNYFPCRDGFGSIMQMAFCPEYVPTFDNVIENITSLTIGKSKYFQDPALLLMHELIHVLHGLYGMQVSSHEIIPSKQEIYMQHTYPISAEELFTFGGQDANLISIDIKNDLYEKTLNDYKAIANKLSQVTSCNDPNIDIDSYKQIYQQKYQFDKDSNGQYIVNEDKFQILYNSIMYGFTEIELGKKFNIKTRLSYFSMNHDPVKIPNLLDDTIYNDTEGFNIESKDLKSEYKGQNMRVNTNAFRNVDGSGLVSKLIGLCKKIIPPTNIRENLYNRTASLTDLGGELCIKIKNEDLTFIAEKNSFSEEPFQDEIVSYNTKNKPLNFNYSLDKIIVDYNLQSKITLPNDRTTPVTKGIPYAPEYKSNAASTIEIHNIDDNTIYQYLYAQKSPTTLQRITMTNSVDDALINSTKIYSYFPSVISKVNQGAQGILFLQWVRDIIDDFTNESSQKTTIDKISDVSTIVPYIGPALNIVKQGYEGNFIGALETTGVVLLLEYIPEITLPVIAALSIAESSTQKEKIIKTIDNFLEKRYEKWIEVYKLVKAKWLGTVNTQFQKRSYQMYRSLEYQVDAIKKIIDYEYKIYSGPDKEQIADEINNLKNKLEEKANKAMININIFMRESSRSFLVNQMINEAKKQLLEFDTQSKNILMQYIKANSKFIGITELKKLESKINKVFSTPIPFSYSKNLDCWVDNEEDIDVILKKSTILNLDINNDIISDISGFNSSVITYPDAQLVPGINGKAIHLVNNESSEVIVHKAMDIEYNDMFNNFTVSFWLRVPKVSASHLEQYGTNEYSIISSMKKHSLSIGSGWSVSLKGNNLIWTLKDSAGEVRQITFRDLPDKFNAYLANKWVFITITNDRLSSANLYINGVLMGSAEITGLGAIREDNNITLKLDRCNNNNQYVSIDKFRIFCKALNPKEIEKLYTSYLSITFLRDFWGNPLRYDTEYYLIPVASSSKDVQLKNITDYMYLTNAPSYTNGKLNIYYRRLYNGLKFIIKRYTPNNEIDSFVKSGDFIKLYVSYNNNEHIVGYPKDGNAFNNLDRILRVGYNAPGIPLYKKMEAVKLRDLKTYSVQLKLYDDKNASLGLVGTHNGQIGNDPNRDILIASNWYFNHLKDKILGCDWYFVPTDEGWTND

Structure (SMILES)	Effect on tetanus toxin in vitro [1]	Activity against clostridia [2]	Analog rating scale, improvement in behavior: Wilcoxon Signed Ranks Z [3]	Analog rating scale, improvement in behavior: p [3]	Analog rating scale, improvement in communication: Wilcoxon Signed Ranks Z [3]	Analog rating scale, improvement in communication: p [3]	Analog ratings at long-term follow-up [3]	Basic blood, stool and urine tests [3]	Brief (1-4 days) period of hyperactivity: children affected [3]	Day of marked lethargy: subjects affected [3]	Blinded assessment of coded, paired videotapes: possible deterioration ([3]; po)	Concentration in the intestines [4]	Activity against Bacteroides [5]	Repetitive and self-stimulatory behaviors ([6]; after eight weeks of therapy)	Course shortly after discontinuation ([6]; after vancomycin discontinuation)	Clinical response ([6]; oral vancomycin 125 mg QID, 12 weeks)
C[C@H](CS)C(=O)N1CCC[C@H]1C(=O)O [Captopril]	inactivates	–	–	–	–	–	–	–	–	–	–	–	–	–	–	–
CC1(C)S[C@@H]2[C@H](NC(=O)[C@H](N)c3ccccc3)C(=O)N2[C@H]1C(=O)O [ampicillin]	–	active	–	–	–	–	–	–	–	–	–	–	–	–	–	–
CN[C@H](CC(C)C)C(=O)N[C@H]1C(=O)N[C@@H](CC(N)=O)C(=O)N[C@H]2C(=O)N[C@H]3C(=O)N[C@H](C(=O)N[C@H](C(=O)O)c4cc(O)cc(O)c4-c4cc3ccc4O)[C@H](O)c3ccc(c(Cl)c3)Oc3cc2cc(c3O[C@@H]2O[C@H](CO)[C@@H](O)[C@H](O)[C@H]2O[C@H]2C[C@](C)(N)[C@H](O)[C@H](C)O2)Oc2ccc(cc2Cl)[C@H]1O [vancomycin]	–	effective	−2.9	0.003	2.9	0.003	returned towards baseline	unremarkable	six	One	one	high concentration	effective	significant reduction	behavioral deterioration	rapid and dramatic clinical improvement
